Measurements taken from patent US20170233346A1, “CRYSTALLINE ANTI-TRICHOPHYTON AGENTS AND PREPARATION PROCESS THEREOF” (MEIJI SEIKA PHARMA CO., LTD., priority 2014, published 2017).

Test: Crystal form stability test (preservation, then powder X-ray diffraction and content)
Assay type: physicochemical
Protocol: Using high-speed imaging plate X-ray diffraction system (R-AXIS VII) manufactured by Rigaku Corporation, X-ray diffraction data of the crystals of the compound of the formula (1) were measured at −180° C. with a CuK α radiation (50 kV, 90 mA, λ=1.5418 Å). A sample was filled in a glass capillary having an inner diameter of 0.7 mm. The diffraction images were collected under the conditions a camera length of 300 mm, an oscillation angle of 40°, and an exposure time of 45 minutes. A contour integration treatment of the diffraction image was carried out by an R-AXIS display software available from Rigaku Corporation (integration range: 45 to 135°). The maximum value of the obtained integrated intensity was made 100, relative intensities of the respective integral intensities were calculated, and plotting them based on the diffraction angle 20 to prepare a diffraction pattern. With regard to the crystals of the compounds of the formula (1), these were preserved under the following mentioned temperature and humidity conditions, and then powder X-ray diffractions were measured. […] Term: 12 months Preservation condition: 25±2° C./[…] Packaging form: Polyethylene double bag/fiber drum Term: 6 months Preservation condition: 40±2° C./75±5% RH* *: RH: relative humidity Packaging form: Polyethylene double bag/fiber drum

[1] = Test 1, 25° C./60% RH, at starting
[2] = Test 1, 25° C./60% RH, preservation period 3 months
[3] = Test 1, 25° C./60% RH, preservation period 6 months
[4] = Test 1, 25° C./60% RH, preservation period 9 months
[5] = Test 1, 25° C./60% RH, preservation period 12 months
[6] = Test 2, 40° C./75% RH, preservation period 1 month
[7] = Test 2, 40° C./75% RH, preservation period 3 months
[8] = Test 2, 40° C./75% RH, preservation period 6 months

## Cc1ccc(-n2nc(C)cc2C)c(O)c1 [formula (1), 2-(3,5-dimethyl-1H-pyrazol-1-yl)-5-methylphenol]
[1]
  Content (%): (99.7%)*
  Crystal form (powder X-ray diffraction): Form A
[2]
  Content (%): (99.9%)*
  Crystal form (powder X-ray diffraction): Form A
[3]
  Content (%): (98.9%)*
  Crystal form (powder X-ray diffraction): Form A
[4]
  Content (%): (99.9%)*
  Crystal form (powder X-ray diffraction): Form A
[5]
  Content (%): (99.0%)*
  Crystal form (powder X-ray diffraction): Form A
Test 1 and Test 2, either of the measurement times
  Change in crystal form after preservation: no change in crystal form was observed
[6]
  Content (%): (100.3%)*
  Crystal form (powder X-ray diffraction): Form A
[7]
  Content (%): (100.6%)*
  Crystal form (powder X-ray diffraction): Form A
[8]
  Content (%): (100.4%)*
  Crystal form (powder X-ray diffraction): Form A
Even under the accelerated conditions
  Period over which Form A crystals were extremely stable and high purity: ≥ 6 months
